This note sets out measurements from patent publication US20200190062A1, “HETEROCYCLIC COMPOUND AND PHARMACEUTICAL COMPOSITION COMPRISING SAME” (BEYONDBIO INC., priority 2015, published 2020).

One data set relates to Tau protein. Briefly: Inhibition of Tau phosphorylation (Western blot, pSer202) in SH-SY5Y cells. It is filed as cell-based. The conditions noted are these: 4 hrs. Here is the method: SH-SY5Y cells expressing Tau protein were cultured in DMEM containing 10% FBS. 2.5×10^6 cells were placed in a 6-well plate and incubated at 5% CO2 and 37° C. for 16 hrs. The compounds obtained in the above Examples serially diluted ⅓ from 3 uM to 0.5 nM or the compounds in a concentration of 0.3, 0.1, 0.03, 0.01, 0.003 uM were treated for 4 hrs in DMEM containing 5% FBS. After 4 hrs, the culture solution was removed, washed with PBS, and cells were lysed by adding 100 ul of lysis buffer. The lysis buffer consisted of 50 mM Tris-HCl (pH 7.5), 150 mM NaCl, 5 mM EDT, 1 mM EGTA, 50 mM NaF, 1 mM PMSF, 1 mM Na3VO4, 2.5 mM DTT, 1% Triton X-100, and Protease inhibitor (Pierce). The lysed cells were centrifuged at 10,000 rpm and 4° C. for 10 min and the proteins in the supernatant were quantified. 25 ug of the proteins were electrophoresed on a SDS-PAGE gel and transferred to PVDF (Amersharm) membrane. The PVDF membrane was immersed in T-PBS containing 10% skim milk and shaken for 1 hr at room temperature. The primary antibody, Phosph-Tau[pSer202] (Abcam), diluted 1:1500 in T-PBS solution containing 5% skim milk was reacted with the membrane at room temperature for 2 hrs. The membrane was washed with T-PBS. The secondary antibody, Anti-rabbit IgG HRP, diluted 1:5000 was added to the membrane, reacted at room temperature for 1 hr, and washed.
In general terms: Immunoblotting shows a protein as a band on a membrane.

A further data set relates to SH-SY5Y. Briefly: Inhibition of cancer cell proliferation (MTT). It is filed as cell-based, human. Put shortly:
(§1)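 Plate 3000 cells/well and let them adhere for 16 h. Add compound (0.004, 0.013, 0.04, 0.12, 0.37, 1.1, 3.3, 10 uM; 0.08% DMSO) and culture for 72 h. Add MTT for 2 h, dissolve formazan in DMSO, read at 535 nm, and fit GI50.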

In the next data set the test system is SK-N-SH. Nature of the data set: Inhibition of cancer cell proliferation (MTT). It is filed as cell-based, human. In outline:
as §1

The subject of a further data set is U-87MG. Briefly: Inhibition of cancer cell proliferation (MTT). It is filed as cell-based, human. Put shortly: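 Absorbance at 535 nm of DMSO-dissolved formazan (2 h MTT) gives viability versus 0.08% DMSO-treated cells, and GI50 is derived from eight concentrations between 0.004 and 10 uM. Exposure lasts 72 h at 37 °C, 5% CO2, using 3000 cells/well in 10% FBS medium ([…] for NCI-H23, otherwise DMEM).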

In the next data set the test system is HCT116. Briefly: Inhibition of cancer cell proliferation (MTT). It is filed as cell-based, human.
Data set [1] in a line: Blood brain barrier permeation. It is filed as in vivo, ICR mice. The note with it: male, ICR, mouse, po; for Kp at 1 h / Kp at 4 h: brain/plasma, read-out: B/P ratio. The procedure: Using 9-week-old male ICR mice, the compounds obtained in the above Examples were orally administered once at a dose of 10 mg/kg or 30 mg/kg, and after 1 hr and 4 hrs, the concentrations of the compounds in the blood and brain of the mice were determined. 3 ICR mice were assigned in each group. Plasma was separated from the blood obtained after sacrificing the mice at each time, the brain of the mice was extracted, and the […] was washed with PBS, followed by pulverizing the brain tissue. The blood was placed in a test tube containing heparin to prevent coagulation and then was centrifuged at 12,000 rpm at 4° C. for 3 min to give a supernatant from which plasma was collected. Brain tissue was weighed, and the brain was pulverized using Dounce's homogenizer after adding 3 times as much volume of PBS as the brain weight. Each of the obtained analytical samples was quantitatively analyzed using a tandem liquid chromatography-mass spectrometer (Tandem LC/MS/MS, API3000 & Agilent 1100 series). Brain permeability of a compound is expressed as a value obtained by dividing the concentration of the compound in the brain by the concentration of the compound in the plasma (B/P ratio), and when the B/P ratio is greater than 1, it means that the concentration in the brain is higher than the one in the blood.

[2] abbreviates: brain, 30 mg/kg, oral once 30 mg/kg, read-out: Concentration in the brain.
[3] abbreviates: plasma, 30 mg/kg, oral once 30 mg/kg, read-out: Concentration in the plasma.
The mark [4] stands for this setting: brain, 10 mg/kg, oral once 10 mg/kg, read-out: Concentration in the brain.
Setting [5] is: plasma, 10 mg/kg, oral once 10 mg/kg, read-out: Concentration in the plasma.

Structures can show the parent of a compound that is named as a salt. Where two headings read alike, the source gives them in different places.

What is called GI50 is the concentration that inhibits growth by half. Low values mean more potent growth inhibition, high ones less potent growth inhibition. Take `Nc1nccc(-c2ccc(O)c(-c3ccnc(N)n3)n2)n1` [Example 1, 2,6-bis(2-aminopyrimidin-4-yl)pyridin-3-ol]: the “Phosphorylation (%) of Tau” value in the data set on Tau protein (0.012 uM) worked out at 88%; in the data set on Tau protein (0.037 uM) it was 92%; with Tau protein (0.11 uM) it was 51%; in the data set on Tau protein (0.33 uM), 28%; in the data set with Tau protein (1 uM), 30%; in the data set with Tau protein (3 uM), 25%. Moreover, the GI50 with SH-SY5Y (Homo sapiens, SH-SY5Y, 72 h) worked out at 150 nM; with SK-N-SH (Homo sapiens, SK-N-SH, 72 h), 280 nM; in the data set on U-87MG (Homo sapiens, U-87 MG, 72 h), 850 nM; in the data set with HCT116 (72 hrs), 150 nM.
With `Nc1nccc(-c2nc(-c3ccnc(N)c3F)ccc2O)n1` [Example 8], the “Phosphorylation (%) of Tau” value in the data set on Tau protein (0.0005 uM) amounted to 40%; with Tau protein (0.0014 uM) it was 43%; in the data set with Tau protein (0.0041 uM) it was 23%; with Tau protein (0.012 uM), 0%; in the data set with Tau protein (0.037 uM), 0%; in the data set on Tau protein (0.11 uM), 0%. The GI50 in the data set with SH-SY5Y (72 hrs) is 10 nM; with SK-N-SH (72 hrs), 10 nM; with U-87MG (72 hrs) it was 60 nM; with HCT116 (72 hrs) it was 10 nM. Moreover, the concentration at 1 h in data set [1] (setting [2]) came out at 144 ng/g; in data set [1] (setting [3]), 94.3 ng/mL. The concentration at 4 h in data set [1] (setting [2]) came to 70.9 ng/g; in data set [1] (setting [3]), 29.4 ng/mL. Besides, the Kp at 1 h in data set [1] (30 mg/kg, oral once 30 mg/kg) was 1.53. In addition, the Kp at 4 h in data set [1] (30 mg/kg, oral once 30 mg/kg) stood at 2.41.
Take `Nc1cc(-c2ccc(O)c(-c3ccnc(N)n3)n2)ccn1` [Example 10, 2′-amino-6-(2-aminopyrimidin-4-yl)-[2,4′-bipyridin]-5-ol]: the “Phosphorylation (%) of Tau” value came out at 101% in the data set with Tau protein (0.012 uM); 84% in the data set on Tau protein (0.037 uM); 60% with Tau protein (0.11 uM); 39% in the data set on Tau protein (0.33 uM); 11% with Tau protein (1 uM); 13% in the data set with Tau protein (3 uM). The GI50 in the data set on SH-SY5Y (Homo sapiens, SH-SY5Y, 72 h) stood at 110 nM; in the data set on SK-N-SH (Homo sapiens, SK-N-SH, 72 h) it was 240 nM; in the data set with U-87MG (Homo sapiens, U-87 MG, 72 h), 380 nM; in the data set with HCT116 (Homo sapiens, HCT-116, 72 h), 260 nM. In addition, the concentration at 1 h in data set [1] (setting [2]) came to 129 ng/g; in data set [1] (setting [3]) it was 82.6 ng/mL. The concentration at 4 h came to 23.2 ng/g in data set [1] (setting [2]) and 8.3 ng/mL in data set [1] (setting [3]). Moreover, the Kp at 1 h in data set [1] (30 mg/kg, oral once 30 mg/kg) turned out to be 1.56. Besides, the Kp at 4 h in data set [1] (30 mg/kg, oral once 30 mg/kg) was 2.78.
`Nc1nccc(-c2ccc(O)c(-c3ccnc(N)n3)n2)n1` [Example 61, 2,6-bis(2-aminopyrimidin-4-yl)pyridin-3-ol 3hydrochloride] showed a GI50 with HCT116 (72 hrs) of 90 nM. Further, the concentration at 1 h in data set [1] (setting [4]) came out at 296 ng/g; in data set [1] (setting [2]), 768 ng/g; in data set [1] (setting [5]) it was 283 ng/mL; in data set [1] (setting [3]), 278 ng/mL. In addition, the concentration at 4 h in data set [1] (setting [4]) came to 90.3 ng/g; in data set [1] (setting [2]), 577 ng/g; in data set [1] (setting [5]), 86.5 ng/mL; in data set [1] (setting [3]), 129 ng/mL. Further, the Kp at 1 h in data set [1] (10 mg/kg, oral once 10 mg/kg) came to 1.05; in data set [1] (30 mg/kg, oral once 30 mg/kg), 2.76. For the same compound, the Kp at 4 h in data set [1] (10 mg/kg, oral once 10 mg/kg) was found to be 1.04; in data set [1] (30 mg/kg, oral once 30 mg/kg) it was 4.49.
Take `Cc1cc(-c2nc(-c3ccnc(N)c3F)ccc2O)nc(N)n1` [Example 71, 2′-amino-6-(2-amino-6-methylpyrimidin-4-yl)-3′-fluoro-[2,4′-bipyridin]-5-ol 3hydrochloride]: the “Phosphorylation (%) of Tau” value in the data set on Tau protein (0.003 uM) is recorded as 110%; in the data set on Tau protein (0.01 uM) it was 101%; in the data set with Tau protein (0.03 uM), 35%; with Tau protein (0.1 uM) it was 26%. The GI50 with U-87MG (Homo sapiens, U-87 MG, 72 h) stood at 10 nM; in the data set on HCT116 (72 hrs), 10 nM. For the same compound, the concentration at 1 h was found to be 3120 ng/g in data set [1] (setting [4]) and 1380 ng/mL in data set [1] (setting [5]). Further, the concentration at 4 h worked out at 165 ng/g in data set [1] (setting [4]) and 52.1 ng/mL in data set [1] (setting [5]). Further, in data set [1] (10 mg/kg, oral once 10 mg/kg), the Kp at 1 h turned out to be 2.26. Also, the Kp at 4 h in data set [1] (10 mg/kg, oral once 10 mg/kg) is 3.18.
